Where two headings read alike, the source gives them in different places.
How the values were obtained:
CDK4-CYCLIND1 = CDK4-CYCLIND1 (Homo sapiens, UniProt P11802); assay: Microfluidic LabChip kinase inhibition assay, CDK4-CyclinD1; details: CDK4 CyclinD1 IC50 (μM), 200 μM ATP, second value in parentheses on the next line
CDK2-CYCLINA = biological target: T1, CDK2-CYCLINA (Homo sapiens, UniProt P24941); assay: Microfluidic LabChip kinase inhibition assay, CDK2-CyclinA; format: biochemical; details: 50 μM ATP
T1 construct: purchased Millipore

CDK9-CYCLINT1 = biological target: T2, CDK9-CYCLINT1 (Homo sapiens, UniProt P50750); assay: Microfluidic LabChip kinase inhibition assay, CDK9-CyclinT1; format: biochemical; details: 10 μM ATP, read-out: CDK9 CyclinT1 IC50
T2 construct: purchased Carna
T2 sequence (P50750 whole entry): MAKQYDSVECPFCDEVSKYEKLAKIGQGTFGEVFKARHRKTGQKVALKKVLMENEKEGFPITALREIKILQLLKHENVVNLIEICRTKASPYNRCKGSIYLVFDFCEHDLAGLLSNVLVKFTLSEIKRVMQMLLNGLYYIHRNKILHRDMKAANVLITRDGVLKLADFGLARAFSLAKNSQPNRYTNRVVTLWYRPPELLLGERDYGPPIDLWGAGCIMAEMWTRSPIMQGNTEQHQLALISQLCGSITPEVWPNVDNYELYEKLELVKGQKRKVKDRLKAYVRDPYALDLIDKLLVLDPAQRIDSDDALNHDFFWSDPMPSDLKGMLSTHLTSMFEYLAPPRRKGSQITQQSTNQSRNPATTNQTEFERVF
T2 sequence (O60563 whole entry partner): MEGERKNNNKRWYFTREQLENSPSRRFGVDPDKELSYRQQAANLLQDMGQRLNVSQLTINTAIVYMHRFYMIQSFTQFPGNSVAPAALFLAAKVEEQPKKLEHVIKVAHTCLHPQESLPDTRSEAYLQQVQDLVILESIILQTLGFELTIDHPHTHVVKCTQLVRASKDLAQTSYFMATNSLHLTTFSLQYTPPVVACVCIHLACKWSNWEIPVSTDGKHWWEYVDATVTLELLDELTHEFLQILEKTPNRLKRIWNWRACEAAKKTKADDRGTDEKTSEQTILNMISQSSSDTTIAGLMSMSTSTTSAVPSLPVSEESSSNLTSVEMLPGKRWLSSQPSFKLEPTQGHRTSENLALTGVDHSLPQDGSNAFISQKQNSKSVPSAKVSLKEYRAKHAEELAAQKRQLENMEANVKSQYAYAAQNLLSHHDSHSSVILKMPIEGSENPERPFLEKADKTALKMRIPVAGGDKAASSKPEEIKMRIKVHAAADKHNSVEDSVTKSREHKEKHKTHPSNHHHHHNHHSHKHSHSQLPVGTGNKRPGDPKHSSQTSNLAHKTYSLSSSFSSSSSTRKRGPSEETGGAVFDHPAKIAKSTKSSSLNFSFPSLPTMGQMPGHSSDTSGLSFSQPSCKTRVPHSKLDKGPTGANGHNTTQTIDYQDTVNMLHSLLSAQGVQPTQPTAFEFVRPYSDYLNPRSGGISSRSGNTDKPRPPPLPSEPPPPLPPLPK

CDK7 CyclinH = CDK7 CyclinH (Homo sapiens, UniProt P50613); assay: Additional inhibition assay, CDK7 CyclinH; format: biochemical
CDK7 CyclinH, sequence (P50613 whole entry): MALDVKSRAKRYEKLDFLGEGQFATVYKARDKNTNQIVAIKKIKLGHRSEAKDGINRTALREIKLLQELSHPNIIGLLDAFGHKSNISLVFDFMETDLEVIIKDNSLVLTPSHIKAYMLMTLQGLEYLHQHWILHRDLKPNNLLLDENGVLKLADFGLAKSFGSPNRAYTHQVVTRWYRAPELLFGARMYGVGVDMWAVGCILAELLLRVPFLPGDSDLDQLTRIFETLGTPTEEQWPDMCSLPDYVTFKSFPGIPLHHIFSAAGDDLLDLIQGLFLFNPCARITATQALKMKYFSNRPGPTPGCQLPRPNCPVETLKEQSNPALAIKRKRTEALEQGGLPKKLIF
CDK7 CyclinH, sequence (P51946 whole entry partner): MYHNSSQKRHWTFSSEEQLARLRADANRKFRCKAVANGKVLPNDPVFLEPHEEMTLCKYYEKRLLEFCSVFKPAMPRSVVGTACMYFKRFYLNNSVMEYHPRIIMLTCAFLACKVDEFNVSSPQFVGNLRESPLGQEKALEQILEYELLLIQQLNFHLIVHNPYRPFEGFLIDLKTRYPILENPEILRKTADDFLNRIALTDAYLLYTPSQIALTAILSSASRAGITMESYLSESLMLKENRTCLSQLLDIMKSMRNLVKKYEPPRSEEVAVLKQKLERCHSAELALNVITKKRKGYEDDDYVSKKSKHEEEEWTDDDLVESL
CDK7 CyclinH, sequence (P51948 whole entry partner): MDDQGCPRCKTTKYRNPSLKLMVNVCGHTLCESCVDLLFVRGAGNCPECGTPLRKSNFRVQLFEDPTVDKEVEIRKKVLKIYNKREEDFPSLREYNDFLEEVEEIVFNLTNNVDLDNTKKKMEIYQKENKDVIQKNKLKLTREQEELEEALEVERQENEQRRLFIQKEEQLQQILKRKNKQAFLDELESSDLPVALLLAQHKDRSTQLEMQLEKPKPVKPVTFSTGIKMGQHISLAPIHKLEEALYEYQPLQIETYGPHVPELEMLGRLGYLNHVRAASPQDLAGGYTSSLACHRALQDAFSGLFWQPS

CDK1/B = CDK1/B (Homo sapiens, UniProt P06493); assay: Additional inhibition assay, CDK1/B; format: biochemical
CDK1/B, sequence (P06493 whole entry): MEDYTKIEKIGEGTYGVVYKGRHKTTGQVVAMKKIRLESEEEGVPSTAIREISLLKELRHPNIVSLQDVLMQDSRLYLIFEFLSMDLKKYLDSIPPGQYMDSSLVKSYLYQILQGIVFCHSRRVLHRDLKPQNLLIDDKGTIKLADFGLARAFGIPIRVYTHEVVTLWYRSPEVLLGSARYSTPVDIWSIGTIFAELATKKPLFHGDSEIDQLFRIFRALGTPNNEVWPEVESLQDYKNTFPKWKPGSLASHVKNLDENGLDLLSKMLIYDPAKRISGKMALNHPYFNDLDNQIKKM
CDK1/B, sequence (P14635 whole entry partner): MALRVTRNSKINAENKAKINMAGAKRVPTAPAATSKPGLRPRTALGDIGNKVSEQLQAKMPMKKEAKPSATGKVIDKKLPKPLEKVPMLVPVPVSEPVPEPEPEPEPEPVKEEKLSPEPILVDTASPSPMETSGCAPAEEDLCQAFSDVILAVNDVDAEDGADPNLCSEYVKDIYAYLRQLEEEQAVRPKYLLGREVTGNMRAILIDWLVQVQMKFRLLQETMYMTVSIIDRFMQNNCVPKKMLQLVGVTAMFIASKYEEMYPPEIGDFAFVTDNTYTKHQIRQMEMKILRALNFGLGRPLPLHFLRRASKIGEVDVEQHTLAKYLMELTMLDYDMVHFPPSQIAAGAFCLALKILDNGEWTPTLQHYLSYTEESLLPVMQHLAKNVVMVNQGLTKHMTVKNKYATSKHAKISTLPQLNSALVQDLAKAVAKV

CDK4-CYCLIND1, sequence (P11802 whole entry): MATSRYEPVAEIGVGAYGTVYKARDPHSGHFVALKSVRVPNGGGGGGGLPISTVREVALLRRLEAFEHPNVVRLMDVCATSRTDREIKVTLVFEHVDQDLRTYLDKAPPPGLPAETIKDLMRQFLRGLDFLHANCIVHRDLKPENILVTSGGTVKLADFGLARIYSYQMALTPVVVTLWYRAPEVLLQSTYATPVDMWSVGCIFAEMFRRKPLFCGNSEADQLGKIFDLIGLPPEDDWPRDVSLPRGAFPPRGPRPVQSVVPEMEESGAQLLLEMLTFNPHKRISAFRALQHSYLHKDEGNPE
CDK4-CYCLIND1, sequence (P24385 whole entry partner): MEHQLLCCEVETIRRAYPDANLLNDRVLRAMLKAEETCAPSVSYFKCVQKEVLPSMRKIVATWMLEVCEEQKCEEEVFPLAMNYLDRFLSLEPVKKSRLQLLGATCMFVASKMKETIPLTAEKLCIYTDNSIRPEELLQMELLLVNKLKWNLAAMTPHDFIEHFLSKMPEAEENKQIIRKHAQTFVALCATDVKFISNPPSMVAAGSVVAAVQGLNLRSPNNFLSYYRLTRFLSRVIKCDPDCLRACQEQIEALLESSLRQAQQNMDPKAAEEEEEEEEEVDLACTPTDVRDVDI

Work on `CN(C)CCOc1ccc(Nc2ncc3c(n2)N(C2CCCC2)C2(CCNC2=O)C3)nc1` (stereo not shown) [Compound C210, 7′-cyclopentyl-2′-((5-(2-(dimethylamino)ethoxy)pyridin-2-yl)amino)-5′,7′-dihydrospiro[pyrrolidine-3,6′-pyrrolo[2,3-d]pyrimidin]-2-one] yielded an IC50 (CDK4-CYCLIND1; Table 3a) of 3.96 µM, an IC50 (CDK4-CYCLIND1; Table 3b) of 3.96 µM and an IC50 (CDK2-CYCLINA; Table 3a) greater than 10 µM. The IC50 (CDK2-CYCLINA; Table 3b) was greater than 10 µM, the IC50 (CDK9-CYCLINT1; Table 3a) was greater than 10 µM and the IC50 (CDK9-CYCLINT1; Table 3b) was greater than 10 µM. It also gave an IC50 (CDK7 CyclinH; Table 3a) greater than 10 µM, an IC50 (CDK7 CyclinH; Table 3b) greater than 10 µM and an IC50 (CDK1/B; Table 3a) greater than 10 µM. It also gave an IC50 (CDK1/B; Table 3b) greater than 10 µM.

Source: patent US20230065740A1, “CYCLIN-DEPENDENT KINASE INHIBITORS” (SPV THERAPEUTICS INC., priority 2018, published 2023)
